This note sets out measurements from patent US20250099405A1, “COMPOSITIONS, METHODS, AND DEVELOPMENT OF ARID4B INHIBITORS” (University of Kentucky Research Foundation, priority 2022, published 2025).

The assay has as its target T1, Flag-ARID4A (Homo sapiens, UniProt P29374).
T1 construct: expressed in transfected cells
T1 sequence (P29374 1-1257): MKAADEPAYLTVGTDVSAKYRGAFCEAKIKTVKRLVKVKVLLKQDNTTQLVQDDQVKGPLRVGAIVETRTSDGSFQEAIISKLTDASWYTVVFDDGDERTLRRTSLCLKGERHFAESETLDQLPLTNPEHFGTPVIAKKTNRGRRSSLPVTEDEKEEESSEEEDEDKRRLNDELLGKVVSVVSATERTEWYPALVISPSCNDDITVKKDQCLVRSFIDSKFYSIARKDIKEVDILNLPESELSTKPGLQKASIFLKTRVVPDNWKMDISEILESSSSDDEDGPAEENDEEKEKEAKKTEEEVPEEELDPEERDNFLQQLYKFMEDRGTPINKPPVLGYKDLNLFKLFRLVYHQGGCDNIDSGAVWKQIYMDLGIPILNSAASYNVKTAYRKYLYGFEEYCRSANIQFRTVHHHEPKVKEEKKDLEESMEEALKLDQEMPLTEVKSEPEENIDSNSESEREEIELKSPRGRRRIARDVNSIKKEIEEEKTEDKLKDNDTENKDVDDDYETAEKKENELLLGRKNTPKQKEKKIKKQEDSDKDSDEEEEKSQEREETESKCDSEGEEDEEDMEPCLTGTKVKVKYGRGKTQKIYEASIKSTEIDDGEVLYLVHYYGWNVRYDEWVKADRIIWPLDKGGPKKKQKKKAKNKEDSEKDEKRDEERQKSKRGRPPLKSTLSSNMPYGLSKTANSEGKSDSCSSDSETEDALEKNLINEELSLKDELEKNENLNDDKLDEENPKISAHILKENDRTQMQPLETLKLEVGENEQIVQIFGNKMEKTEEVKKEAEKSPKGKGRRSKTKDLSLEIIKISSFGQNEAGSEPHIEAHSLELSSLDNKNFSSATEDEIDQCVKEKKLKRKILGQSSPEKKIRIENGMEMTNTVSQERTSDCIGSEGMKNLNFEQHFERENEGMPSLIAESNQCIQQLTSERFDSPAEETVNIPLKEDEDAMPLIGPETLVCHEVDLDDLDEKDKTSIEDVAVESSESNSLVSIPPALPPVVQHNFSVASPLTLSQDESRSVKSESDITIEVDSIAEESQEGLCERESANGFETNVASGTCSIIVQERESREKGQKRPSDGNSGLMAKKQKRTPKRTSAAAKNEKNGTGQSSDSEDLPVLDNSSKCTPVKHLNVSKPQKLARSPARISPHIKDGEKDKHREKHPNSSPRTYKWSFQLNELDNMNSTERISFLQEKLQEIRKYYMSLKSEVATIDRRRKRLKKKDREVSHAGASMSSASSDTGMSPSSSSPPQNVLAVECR
Description: CETSA in cells expressing Flag-ARID4A. As to conditions: 10 μM, 2 h. In kind it is cell-based. The method, then: (B-C) show cells expressing HA-ARID4B (C) or HA-ARID4BIC (D) treated or not with ARD150 (10 μM) for 2 h were used for CESTA. […] (D-E) show cells expressing HA-ARID4B (D) or Flag-ARID4A (E) treated or not with RWR-18 (10 μM) for 2 h were used for CESTA. […] Data are means±SEM from three experiments. *P<0.05, **P<0.01, ns, not significant.
Using CETSA (cellular thermal shift assay) to examine whether ARD150 or RWR-18 binds to ARID4B, MCF7 cells treated or not with ARD150 or RWR-18 for 2 h were collected, followed by heating at 46, 49, 52, 55, and 58° C. to denature and precipitate ARID4B protein, cell lysis, removal of cell debris and aggregates by centrifugation, and finally detection of remaining thermostable ARID4B protein by western blot. The ARID4B aggregation temperatures without ARD150 were determined to be 49-52° C., but shifted to 52-55° C. after treatment with ARD150 and even more so with RWR-18 (FIG. 15A-D). To determine whether ARD150 and RWR-18 targets the chromodomain of ARID4B, CESTA was performed using chromodomain deletion mutant (ARID4BAC). HEK-293T cells expressing HA-ARID4B or HA-ARID4BAC were treated or not with ARD150 (10 μM) for 2 h and processed for CESTA.

On to `O=C(COc1ccc(OCc2ccccc2)cc1)NCCCN1CCOCC1` [RWR-18], for which the “shift of aggregation temperatures of Flag-ARID4A” value was “no shift was observed”.
